Laboratory results taken from US20070128217A1 (priority 2003, published 2007).

Key:
[1] = system: antibodies in sera from SARS patients (sera 1a, 1b, 2, 6, 37, 62, London, SARS-yellow, SARS-green); type: binding, human; set-up: Binding of serum 6 to linear peptides of protein X1 of SARS-CoV Urbani / Binding of serum 37 to linear peptides of protein X1 of SARS-CoV Urbani / Binding of serum 6 to looped/cyclic peptide (PEPSCAN-ELISA) / Binding of serum 37 to looped/cyclic peptide (PEPSCAN-ELISA) / Binding of serum 37 to looped/cyclic peptides of protein X1 of SARS-CoV Urbani / Binding of serum 6 to linear peptides of protein X2 / Binding of serum 37 to linear peptides of protein X2 / Binding of serum 37 to looped/cyclic peptides of protein X2 of SARS-CoV Urbani / Binding of serum 6 to linear peptides of protein M of SARS-CoV Urbani / Binding of serum 37 to linear peptides of protein M of SARS-CoV Urbani / Binding of serum 6 to looped/cyclic peptides of protein M of SARS-CoV Urbani / Binding of serum 37 to looped/cyclic peptides of protein M of SARS-CoV Urbani / Binding of serum 6 to linear peptides of protein X3 of SARS-CoV Urbani / Binding of serum 37 to linear peptides of protein X3 of SARS-CoV Urbani / Binding of serum 37 to looped/cyclic peptides of protein X3 of SARS-CoV Urbani / Binding of serum 6 to linear peptides of protein X4 of SARS-CoV Urbani / Binding of serum 37 to linear peptides of protein X4 of SARS-CoV Urbani / Binding of serum 37 to looped/cyclic peptides of protein X4 of SARS-CoV Urbani / Binding of serum 6 to linear peptides of protein X5 of SARS-CoV Urbani / Binding of serum 37 to linear peptides of protein X5 of SARS-CoV Urbani / Binding of serum 37 to looped/cyclic peptides of protein X5 of SARS-CoV Urbani / Binding of serum 6 to linear peptides of protein N of SARS-CoV Urbani / Binding of serum 37 to linear peptides of protein N of SARS-CoV Urbani / Binding of serum 6 to linear peptide (PEPSCAN-ELISA) / Binding of serum 1a to looped/cyclic peptides of protein N of SARS-CoV Urbani / Binding of serum 1b to looped/cyclic peptides of protein N of SARS-CoV Urbani / Binding of serum 2 to looped/cyclic peptides of protein N of SARS-CoV Urbani / Binding of serum 6 to looped/cyclic peptides of protein N of SARS-CoV Urbani / Binding of serum 37 to looped/cyclic peptides of protein N of SARS-CoV Urbani / Binding of serum 62 to looped/cyclic peptides of protein N of SARS-CoV Urbani / Binding of serum London to looped/cyclic peptides of protein N of SARS-CoV Urbani / Binding of serum SARS-green to looped/cyclic peptides of protein N of SARS-CoV Urbani: unit not given here
[2] = system: control sera (pooled serum of ten healthy LUMC hospital workers; commercial negative donor pooled serum from the Dutch bloodbank); type: binding, human; set-up: Binding of Control serum LUMC to linear peptides / Binding of Control serum Blood-bank to linear peptides / Binding of Control serum LUMC to looped peptides / Binding of Control Serum Blood-Bank to Looped peptides / Binding of Control serum LUMC to linear peptides of the protein M of SARS-CoV Urbani / Binding of Control serum Blood-bank to linear peptides of the protein M of SARS-CoV Urbani / Binding of Control serum LUMC to looped peptides of the protein M of SARS-CoV Urbani / Binding of Control Serum Blood-Bank to Looped peptides of the protein M of SARS-CoV Urbani: unit not given here
[3] = system: rabbit serum obtained by immunizing a rabbit with the SARS-CoV strain Frankfurt 1; type: binding; set-up: Binding of a rabbit serum to linear peptides / Binding of a rabbit serum to looped peptides / Rabbit serum linear peptides / Rabbit serum looped peptides / Binding of a rabbit serum to linear peptides of protein N of SARS-CoV Urbani (Rabbit serum linear peptides) / Binding of a rabbit serum to looped/cyclic peptides of protein N of SARS-CoV Urbani (Rabbit serum looped peptides): unit not given here
[4] = system: recombinant human anti-SARS-CoV antibody 03-018; type: binding; set-up: Binding of antibody 03-018 to linear peptides of the N protein of SARS-CoV Urbani / Binding of antibody 03-018 to looped/cyclic peptides of the N protein of SARS-CoV Urbani: unit not given here

Row | Sequence | Binding of serum 1a to looped/cyclic peptides of protein N of SARS-CoV Urbani [1] | Binding of serum 1b to looped/cyclic peptides of protein N of SARS-CoV Urbani [1] | Binding of serum 2 to looped/cyclic peptides of protein N of SARS-CoV Urbani [1] | Binding of serum 6 to looped/cyclic peptides of protein N of SARS-CoV Urbani [1] | Binding of serum 37 to looped/cyclic peptides of protein N of SARS-CoV Urbani [1] | Binding of serum 62 to looped/cyclic peptides of protein N of SARS-CoV Urbani [1] | Binding of serum London to looped/cyclic peptides of protein N of SARS-CoV Urbani [1] | Binding of serum SARS-green to looped/cyclic peptides of protein N of SARS-CoV Urbani [1] | Binding of serum SARS-yellow to looped/cyclic peptides of protein N of SARS-CoV Urbani [1] | Binding of a rabbit serum to linear peptides of protein N of SARS-CoV Urbani (Rabbit serum linear peptides) [3] | Binding of a rabbit serum to looped/cyclic peptides of protein N of SARS-CoV Urbani (Rabbit serum looped peptides) [3] | Binding of antibody 03-018 to linear peptides of the N protein of SARS-CoV Urbani [4] | Binding of antibody 03-018 to looped/cyclic peptides of the N protein of SARS-CoV Urbani [4] | further results
1 | ALLLLDRLNQLESKV | 0.4 | 0.3 | 0.5 | 0.3 | 1.0 | 0.9 | 0.5 | 0.7 | 0.5 | 0.1 | 0.4 | 0.1 | 0.3 | Binding of serum 1a to linear peptide (PEPSCAN-ELISA) [1]: 0.2; Binding of serum 1b to linear peptide (PEPSCAN-ELISA) [1]: 0.1; Binding of serum 2 to linear peptide (PEPSCAN-ELISA) [1]: 0.2; Binding of serum 6 to linear peptide (PEPSCAN-ELISA) [1]: 0.1; Binding of serum 37 to linear peptide (PEPSCAN-ELISA) [1]: 0.7; Binding of serum 62 to linear peptide (PEPSCAN-ELISA) [1]: 0.4; Binding of serum London to linear peptide (PEPSCAN-ELISA) [1]: 0.6; Binding of serum SARS-green to linear peptide (PEPSCAN-ELISA) [1]: 0.2; Binding of serum SARS-yellow to linear peptide (PEPSCAN-ELISA) [1]: 0.5; Binding of Control Serum Blood-Bank to Looped peptides [2]: 0.8; Binding of Control serum Blood-bank to linear peptides [2]: 0.8; Binding of Control serum LUMC to linear peptides [2]: 0.7; Binding of Control serum LUMC to looped peptides [2]: 0.8
2 | KTDEAQPLPQRQKKQ | 0.3 | 0.1 | 0.3 | 0.6 | 0.3 | 0.1 | 0.7 | 0.2 | 0.5 | 0.0 | 0.0 | 0.1 | 0.2 | Binding of serum 1a to linear peptides of protein N of SARS-CoV Urbani [1]: 0.3; Binding of serum 1b to linear peptides of protein N of SARS-CoV Urbani [1]: 0.2; Binding of serum 2 to linear peptides of protein N of SARS-CoV Urbani [1]: 0.3; Binding of serum 6 to linear peptides of protein N of SARS-CoV Urbani [1]: 0.3; Binding of serum 37 to linear peptides of protein N of SARS-CoV Urbani [1]: 0.9; Binding of serum 62 to linear peptides of protein N of SARS-CoV Urbani [1]: 0.9; Binding of serum London to linear peptides of protein N of SARS-CoV Urbani [1]: 1.4; Binding of serum SARS-green to linear peptides of protein N of SARS-CoV Urbani [1]: 0.6; Binding of serum SARS-yellow to linear peptides of protein N of SARS-CoV Urbani [1]: 1.5; Control Serum Blood-Bank Looped peptides [2]: 0.4; Control serum Blood-bank linear peptides [2]: 0.7; Control serum LUMC linear peptides [2]: 0.9; Control serum LUMC looped peptides [2]: 0.4
